In patent US10058550B2, “Methods of treating heart failure” (priority 2015, dated 2018) one finds EC50 data, which are given here for 21 compounds.

Sequence of human APJ receptor (P35414 whole entry): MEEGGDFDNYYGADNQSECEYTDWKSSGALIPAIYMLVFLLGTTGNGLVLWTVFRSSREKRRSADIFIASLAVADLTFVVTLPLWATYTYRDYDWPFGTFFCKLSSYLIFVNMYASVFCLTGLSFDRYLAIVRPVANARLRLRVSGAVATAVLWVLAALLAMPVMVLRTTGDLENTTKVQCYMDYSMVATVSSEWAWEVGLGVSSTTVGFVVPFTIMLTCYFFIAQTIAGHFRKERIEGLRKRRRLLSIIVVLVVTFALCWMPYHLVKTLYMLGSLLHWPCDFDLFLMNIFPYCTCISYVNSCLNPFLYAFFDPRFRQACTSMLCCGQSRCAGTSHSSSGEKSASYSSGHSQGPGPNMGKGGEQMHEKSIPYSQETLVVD

The experiment addresses human APJ receptor (Homo sapiens (Human), UniProt P35414). Nature of the experiment: biochemical. The class given is biochemical. The settings on record: read-out: Activity hAPJ SPA EC50 IP. The method in brief: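 Agonist-stimulated [35S]GTPγS (0.2 nM) binding was read by SPA after 90 min at room temperature. Buffer: 20 mM HEPES pH 7.5 with 5 mM MgCl2, 200 mM NaCl, 3 μM GDP, 0.1% BSA; membranes were from a stable human APJ CHO line. EC50 values are averages of independent runs, fitted by non-linear regression.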
On to `COc1cccc(-c2nnc(NS(=O)(=O)C[C@H](O)c3ccc(F)cn3)n2-c2c(OC)cccc2OC)n1` (single isomer, unassigned) [Example 317.0, (2R)—N-(4-(2,6-dimethoxyphenyl)-5-(6-methoxy-2-pyridinyl)-4H-1,2,4-triazol-3-yl)-2-(5-fluoro-2-pyridinyl)-2-hydroxyethanesulfonamide or (2S)—N-(4-(2,6-dimethoxyphenyl)-5-(6-methoxy-2-pyridinyl)-4H-1,2,4-triazol-3-yl)-2-(5-fluoro-2-pyridinyl)-2-hydroxyethanesulfonamide], for which the EC50 is 0.53 nM. In the case of `COc1cccc(-c2nnc(NS(=O)(=O)C[C@H](OC)c3ccc(F)cn3)n2-c2c(OC)cccc2OC)n1` (single isomer, unassigned) [Example 329.0, (2R)—N-(4-(2,6-dimethoxyphenyl)-5-(6-methoxy-2-pyridinyl)-4H-1,2,4-triazol-3-yl)-2-(5-fluoro-2-pyridinyl)-2-methoxyethanesulfonamide or (2S)—N-(4-(2,6-dimethoxyphenyl)-5-(6-methoxy-2-pyridinyl)-4H-1,2,4-triazol-3-yl)-2-(5-fluoro-2-pyridinyl)-2-methoxyethanesulfonamide], the EC50 was 0.23 nM. The same measure for `COc1cccc(-c2nnc(NS(=O)(=O)C[C@H](OC)c3ccc(F)cn3)n2-c2c(OC)cccc2OC)n1` (single isomer, unassigned) [Example 330.0, (2R)—N-(4-(2,6-dimethoxyphenyl)-5-(6-methoxy-2-pyridinyl)-4H-1,2,4-triazol-3-yl)-2-(5-fluoro-2-pyridinyl)-2-methoxyethanesulfonamide or (2S)—N-(4-(2,6-dimethoxyphenyl)-5-(6-methoxy-2-pyridinyl)-4H-1,2,4-triazol-3-yl)-2-(5-fluoro-2-pyridinyl)-2-methoxyethanesulfonamide]: 0.3 nM. The same measure for `COc1cccc(-c2nnc(NS(=O)(=O)C[C@H](O)c3ccc(C#N)cn3)n2-c2c(OC)cccc2OC)n1` (single isomer, unassigned) [Example 332.0, (R)-2-(5-cyanopyridin-2-yl)-N-(4-(2,6-dimethoxyphenyl)-5-(6-methoxypyridin-2-yl)-4H-1,2,4-triazol-3-yl)-2-hydroxyethanesulfonamide or (S)-2-(5-cyanopyridin-2-yl)-N-(4-(2,6-dimethoxyphenyl)-5-(6-methoxypyridin-2-yl)-4H-1,2,4-triazol-3-yl)-2-hydroxyethanesulfonamide]: 0.56 nM; for `COc1cccc(OC)c1-n1c(NS(=O)(=O)[C@@H](C)[C@@H](O)c2ccc(C#N)cc2F)nnc1-c1cncc(C)c1` (single isomer, unassigned) [Example 343.0]: 64 nM. For `COc1cccc(OC)c1-n1c(NS(=O)(=O)[C@@H](C)[C@@H](O)c2ccc(C#N)cc2F)nnc1-c1cncc(C)c1` (single isomer, unassigned) [Example 344.0], the EC50 was determined as 0.6 nM.

In the case of `COc1cccc(OC)c1-n1c(NS(=O)(=O)[C@@H](C)[C@H](OC)c2ccc(F)cn2)nnc1-c1cncc(C)c1` (single isomer, unassigned) [Example 351.0], the EC50 amounted to 0.87 nM. As to `COc1cccc(OC)c1-n1c(NS(=O)(=O)[C@@H](C)[C@H](OC)c2ccc(F)cn2)nnc1-c1cncc(C)c1` (single isomer, unassigned) [Example 352.0], the EC50 turned out to be 0.32 nM. As to `COc1cccc(OC)c1-n1c(NS(=O)(=O)[C@@H](C)[C@H](OC)c2ccc(F)cn2)nnc1-c1cncc(C)c1` (single isomer, unassigned) [Example 353.0], the EC50 is 100 nM. Under `COc1cccc(OC)c1-n1c(NS(=O)(=O)[C@H](C)[C@H](O)c2ncc(F)cn2)nnc1-c1cncc(C)c1` (single isomer, unassigned) [Example 358.0, (1R,2R)—N-(4-(2,6-dimethoxyphenyl)-5-(5-methylpyridin-3-yl)-4H-1,2,4-triazol-3-yl)-1-(5-fluoropyrimidin-2-yl)-1-hydroxypropane-2-sulfonamide or (1S,2S)—N-(4-(2,6-dimethoxyphenyl)-5-(5-methylpyridin-3-yl)-4H-1,2,4-triazol-3-yl)-1-(5-fluoropyrimidin-2-yl)-1-hydroxypropane-2-sulfonamide] stands 69 nM; under `COc1cccc(OC)c1-n1c(NS(=O)(=O)[C@H](C)[C@@H](OCCO)c2ncc(C)cn2)nnc1-c1cncc(C)c1` (single isomer, unassigned) [Example 394.0, (1S,2R)—N-(4-(2,6-dimethoxyphenyl)-5-(5-methylpyridin-3-yl)-4H-1,2,4-triazol-3-yl)-1-(2-hydroxyethoxy)-1-(5-methylpyrimidin-2-yl)propane-2-sulfonamide or (1R,2S)—N-(4-(2,6-dimethoxyphenyl)-5-(5-methylpyridin-3-yl)-4H-1,2,4-triazol-3-yl)-1-(2-hydroxyethoxy)-1-(5-methylpyrimidin-2-yl)propane-2-sulfonamide], 12 nM.

Turning to `COc1cccc(OC)c1-n1c(NS(=O)(=O)[C@H](C)[C@@H](OCCO)c2ncc(C)cn2)nnc1-c1cncc(C)c1` (single isomer, unassigned) [Example 395.0, (1S,2R)—N-(4-(2,6-dimethoxyphenyl)-5-(5-methylpyridin-3-yl)-4H-1,2,4-triazol-3-yl)-1-(2-hydroxyethoxy)-1-(5-methylpyrimidin-2-yl)propane-2-sulfonamide or (1R,2S)—N-(4-(2,6-dimethoxyphenyl)-5-(5-methylpyridin-3-yl)-4H-1,2,4-triazol-3-yl)-1-(2-hydroxyethoxy)-1-(5-methylpyrimidin-2-yl)propane-2-sulfonamide], the EC50 was 0.11 nM.

For the compound `COc1cccc(OC)c1-n1c(NS(=O)(=O)[C@H](C)[C@@H](OC[C@H](C)O)c2ncc(C)cn2)nnc1-c1cncc(C)c1` (single isomer, unassigned) [Example 400.0], the EC50 came out at 17 nM. As to `COc1cccc(OC)c1-n1c(NS(=O)(=O)[C@H](C)[C@@H](OC[C@H](C)O)c2ncc(C)cn2)nnc1-c1cncc(C)c1` (single isomer, unassigned) [Example 401.0], the EC50 amounted to 21 nM.

Turning to `COc1cccc(OC)c1-n1c(NS(=O)(=O)[C@H](C)[C@@H](OC[C@H](C)O)c2ncc(C)cn2)nnc1-c1cncc(C)c1` (single isomer, unassigned) [Example 402.0], the EC50 amounted to 0.86 nM. The same measure for `COc1cccc(OC)c1-n1c(NS(=O)(=O)[C@H](C)[C@@H](OC[C@H](C)O)c2ncc(C)cn2)nnc1-c1cncc(C)c1` (single isomer, unassigned) [Example 403.0]: 0.21 nM; for `COc1cccc(OC)c1-n1c(NS(=O)(=O)[C@@H](C)[C@@H](OCCO)c2ncc(C)cn2)nnc1-c1cncc(C)c1` (single isomer, unassigned) [Example 408.0, (1S,2S)—N-(4-(2,6-dimethoxyphenyl)-5-(5-methylpyridin-3-yl)-4H-1,2,4-triazol-3-yl)-1-(2-hydroxyethoxy)-1-(5-methylpyrimidin-2-yl)propane-2-sulfonamide or (1R,2R)—N-(4-(2,6-dimethoxyphenyl)-5-(5-methylpyridin-3-yl)-4H-1,2,4-triazol-3-yl)-1-(2-hydroxyethoxy)-1-(5-methylpyrimidin-2-yl)propane-2-sulfonamide]: 0.88 nM; for `COc1cccc(OC)c1-n1c(NS(=O)(=O)[C@@H](C)[C@@H](OCCO)c2ncc(C)cn2)nnc1-c1cncc(C)c1` (single isomer, unassigned) [Example 409.0, (1S,2S)—N-(4-(2,6-dimethoxyphenyl)-5-(5-methylpyridin-3-yl)-4H-1,2,4-triazol-3-yl)-1-(2-hydroxyethoxy)-1-(5-methylpyrimidin-2-yl)propane-2-sulfonamide or (1R,2R)—N-(4-(2,6-dimethoxyphenyl)-5-(5-methylpyridin-3-yl)-4H-1,2,4-triazol-3-yl)-1-(2-hydroxyethoxy)-1-(5-methylpyrimidin-2-yl)propane-2-sulfonamide]: 29 nM. Consider `COc1cccc(-c2nnc(NS(=O)(=O)[C@H](C)[C@@H](OCCO)c3ncc(C)cn3)n2-c2c(OC)cccc2OC)n1` (single isomer, unassigned) [Example 415.0, (1S,2R)—N-(4-(2,6-dimethoxyphenyl)-5-(6-methoxypyridin-2-yl)-4H-1,2,4-triazol-3-yl)-1-(2-hydroxyethoxy)-1-(5-methylpyrimidin-2-yl)propane-2-sulfonamide or (1R,2S)—N-(4-(2,6-dimethoxyphenyl)-5-(6-methoxypyridin-2-yl)-4H-1,2,4-triazol-3-yl)-1-(2-hydroxyethoxy)-1-(5-methylpyrimidin-2-yl)propane-2-sulfonamide], for which the EC50 was determined as 8.9 nM.

Turning to `COc1cccc(-c2nnc(NS(=O)(=O)[C@H](C)[C@@H](OCCO)c3ncc(C)cn3)n2-c2c(OC)cccc2OC)n1` (single isomer, unassigned) [Example 416.0, (1S,2R)—N-(4-(2,6-dimethoxyphenyl)-5-(6-methoxypyridin-2-yl)-4H-1,2,4-triazol-3-yl)-1-(2-hydroxyethoxy)-1-(5-methylpyrimidin-2-yl)propane-2-sulfonamide or (1R,2S)—N-(4-(2,6-dimethoxyphenyl)-5-(6-methoxypyridin-2-yl)-4H-1,2,4-triazol-3-yl)-1-(2-hydroxyethoxy)-1-(5-methylpyrimidin-2-yl)propane-2-sulfonamide], the EC50 came out at 0.26 nM. The same measure for `COc1cccc(-c2nnc(NS(=O)(=O)[C@@H](C)[C@H](O)C(C)(C)C)n2-c2c(OC)cccc2OC)n1` (single isomer, unassigned) [Example 434.0, (2S,3R)—N-(4-(2,6-dimethoxyphenyl)-5-(6-methoxy-2-pyridinyl)-4H-1,2,4-triazol-3-yl)-3-hydroxy-4,4-dimethyl-2-pentanesulfonamide or (2R,3S)—N-(4-(2,6-dimethoxyphenyl)-5-(6-methoxy-2-pyridinyl)-4H-1,2,4-triazol-3-yl)-3-hydroxy-4,4-dimethyl-2-pentanesulfonamide]: 120 nM.
